Reference: patent US20230393140A1, “BINDING ASSAYS INVOLVING A PLURALITY OF SYNTHETIC COMPOUNDS, TARGETS, AND COUNTER TARGETS” (SRI International, priority 2020, published 2023)
Like-named read-outs stand apart in the source and are kept apart here. Marks after values point to notes of the source that are not given here. Numbered stars: 1 amine (or outer) side, 2 acyl side, 3 side chain; on linkers, the order of the positions; unused ones are H or OH. Square brackets hold non-standard residues; d marks the D form. Peptide text beside a SMILES is read from it. * marks the point of attachment. 5FAM = O=C1OC2(c3ccc(O)cc3Oc3cc(O)ccc32)c2ccc(C(=O)*)cc21; NHCH2C6H4(4-CH2CONH2) = NC(=O)Cc1ccc(CN*)cc1; X1 = O=C(Cc1ccc(CN[*:1])cc1)[*:2]

What was measured:
K-Ras = target: T1, K-Ras (Homo sapiens, UniProt P01116, G12V); test: MST binding affinity of resynthesized NNP hits to K-Ras
T1 construct: purchased Cytoskeleton Inc. CS-RS04
Experimental: Loading was performed according to the following protocol: The 200 μM stock solution of the target protein was diluted to 10 μM in 20 mM HEPES pH 8.0, 150 mM NaCl, 10 mM MgCl2, 1 mM TCEP, 0.05% Tween-20 (total volume 110 μL). 10 μL were set aside for later labeling quality control. EDTA pH 8.0 (stock concentration 10 mM) was added to the protein solution to a final concentration of 80 μM. GTP (stock concentration 50 mM) was added to the protein solution to a final concentration of 750 μM. The solution was incubated at 30° C. for 2 hours (PCR tube) and then placed on ice for 2 minutes. MgCl2 was added to the protein solution to a final concentration of 100 mM. The resulting protein solution was buffer exchanged into the buffer required in the labeling kit for labeling. […] All the other target molecules (TNFα, IL-6, IL-6R and ASGPR) were used as received without any additional treatment.
Hit binding affinity to various targets were determined using Microscale Thermophoresis (MST). MST experiments were performed on a Monolith NT.115pico (NanoTemper Technologies GmbH, Munich, Germany). Measurements were performed at room temperature, in triplicate with incubation periods of 15, 30 and 45 minutes. […] Targets were labeled using Nanotemper Monolith 2nd Generation Protein Labeling Kits. RED-MALEIMIDE (Maleimide-647-dye) labeling kit was used for K-Ras and RED-NHS (NHS-647-dye) labeling kit was used for IL-6, IL-6R, TNFα and ASGPR. The buffer for the ASGPR contained 20 mM HEPES pH 7.4, 150 mM NaCl, 10 mM MgCl2, 2 mM CaCl2, 0.05% Pluronic F-127, and 1 mM DTT; for IL-6 contained 20 mM HEPES pH 7.4, 150 mM KCl, 10 mM MgCl2, and 0.1% Pluronic F-127; for the soluble IL-6 receptor 20 mM HEPES pH 7.4, 150 mM NaCl, 10 mM MgCl2, and 0.05% Tween-20; for K-Ras 20 mM HEPES pH 7.4, 150 mM NaCl, 10 mM MgCl2, 0.05% Tween-20 and 1 mM DTT; for TNFα 10 mM HEPES pH 7.4, 150 mM NaCl, 10 mM MgCl2, 0.05% Polysorbate-20. Triplicate data was analyzed using MO.AffinityAnalysis software (NanoTemper Technologies GmbH).

cRaf/K-Ras (G12V) PPI = target: T2, cRaf/K-Ras (G12V) PPI (Homo sapiens, UniProt P01116, G12V); test: K-Ras-cRaf HTRF-based PPI profiling; type: biochemical; conditions: for HillSlope: curve fit of % binding, K-Ras G12V 30 nM, GST-cRaf 10 nM; for blank corrected HTRF: raw data, compounds without fluorescein;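 as to blank corrected HTRF: background is the signal of wells with all components except cRaf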
T2 construct: b-Kras G12V (GppNHp) (aa 2-169); biotin (b-
Experimental: In some experimental embodiments, a buffer was added to the assay wells which included […] HEPES pH 7.4, 150 mM NaCl, 5 mM MgCl2, 1 mM DTT, 0.005% NP40, and 1% DMSO. 5 uL of 3×K-Ras protein was then added to the assay wells, followed by the synthetic compounds which were added using acoustic technology (ECHO, Labcyte) followed by thirty minutes incubation at room temperature. Afterwards, 5 uL of 3×cRaf protein was added to the assay wells and 5 uL of detection mix was then added to the assay wells after 30 minutes. The detection mix included Mab anti-GST-Tb cryptate (Cisbio 61GSTTLB) and streptavidin-XL665 (Ex/Em=(337/665; 620) in PHERAstar (BMG Labtech)). HTRF signal was measured […] later.
The data includes raw data (signal-background without cRaf protein but with all other component), % binding (relative to DMSO controls), and curve fits. Curve fits were performed when the activities at the highest concentration of the synthetic compounds were less than 65%. Tables 18A-18B below includes the raw data (e.g., blank corrected HTRF) and Tables 19A-19B includes the % binding.

biotinylated GST = test: Interference check with biotinylated GST and detection mix
Description: Table 20 below provides an interference check on the synthetic compounds using biotinylated GST, which was used with the detection mix to check for compound effect on fluorescence.

[1] = K-Ras, compound with fluorescein on N-term, read-out: KD[nM] in MST (with fluorescein on N-term)
[2] = read-out: KD (nM) [95% conf. int], MST, NNP1 library hit, target K-Ras, one-site binding model

Structure (SMILES) | Kd (K-Ras; [1]) | Kd (K-Ras; [2]) | HillSlope (cRaf/K-Ras (G12V) PPI) | blank corrected HTRF (cRaf/K-Ras (G12V) PPI; conc. 1.00E−05) | blank corrected HTRF (cRaf/K-Ras (G12V) PPI; conc. 1.11E−06) | blank corrected HTRF (cRaf/K-Ras (G12V) PPI; conc. 1.37E−08) | blank corrected HTRF (cRaf/K-Ras (G12V) PPI; conc. 3.33E−06) | blank corrected HTRF (cRaf/K-Ras (G12V) PPI; conc. 3.70E−07) | blank corrected HTRF (cRaf/K-Ras (G12V) PPI; conc. 4.12E−08) | also measured
CC(C)C[C@H](NC(=O)[C@@H](CCC(=O)O)NC(=O)[C@H]1CCCN1C(=O)[C@@H](Cc1ccccc1)NC(=O)[C@@H](CO)NC(=O)c1ccc2c(c1)C(=O)OC21c2ccc(O)cc2Oc2cc(O)ccc21)C(=O)NCc1ccc(CC(=O)NCC(=O)N[C@@H](C(=O)N2CCC[C@@H]2C(=O)N[C@H](CCCNC(=N)N)C(=O)N[C@@H](C)C(=O)NCc2ccc(CC(=O)N3CCC[C@@H]3C(=O)N[C@H](CO)C(=O)N[C@H](CCC(=O)O)C(=O)N[C@H](CCCNC(=N)N)C(=O)NCC(=O)NCc3ccc(CC(=O)N4CCC[C@@H]4C(=O)N[C@H](CCCCN)C(=O)N[C@H](Cc4ccc(O)cc4)C(=O)N[C@H](CCCNC(=N)N)C(=O)N[C@@H](Cc4ccccc4)C(=O)NCc4ccc(CC(=O)N[C@H](CCCNC(=N)N)C(=O)N[C@H](Cc5ccccc5)C(=O)N5CCC[C@@H]5C(=O)N[C@@H](C(=O)NCC(=O)NCc5ccc(CC(=O)NCC(=O)N[C@H](Cc6c[nH]c7ccccc67)C(=O)N[C@H](Cc6c[nH]cn6)C(=O)N[C@H](CCCNC(=N)N)C(=O)N[C@@H](C)C(=O)NCc6ccc(CC(N)=O)cc6)cc5)C(C)C)cc4)cc3)cc2)C(C)C)cc1 [KRAS-1-9] (5FAM-[dS][dF][dP][dE]L[X1]G[dV][dP][dR]A[X1][dP][dS][dE][dR]G[X1][dP][dK][dY][dR]F[X1][dR][dF][dP][dV]G[X1]G[dW][dH][dR]A-{NHCH2C6H4(4-CH2CONH2)}) | 32 nM | 32 nM | −0.9902 | 4707 | 7790 | 12329 | 3269 | 12513 | 14333 | blank corrected HTRF (cRaf/K-Ras (G12V) PPI; conc. 4.57E−09): 13688; % signal compared to DMSO (biotinylated GST; assay conc. 0.000508053 μM): 99.72%; % signal compared to DMSO (biotinylated GST; assay conc. 0.001524158 μM): 102.8%; % signal compared to DMSO (biotinylated GST; assay conc. 0.004572474 μM): 100.2%; % signal compared to DMSO (biotinylated GST; assay conc. 0.013717421 μM): 101.4%; % signal compared to DMSO (biotinylated GST; assay conc. 0.041152263 μM): 102.8%; % signal compared to DMSO (biotinylated GST; assay conc. 0.12345679 μM): 101.5%; % signal compared to DMSO (biotinylated GST; assay conc. 0.37037037 μM): 99.8%; % signal compared to DMSO (biotinylated GST; assay conc. 1.111111111 μM): 92.41%; % signal compared to DMSO (biotinylated GST; assay conc. 3.333333333 μM): 69.59%; % signal compared to DMSO (biotinylated GST; assay conc. 10 μM): 53.69* %
CC(C)[C@H](NC(=O)[C@@H](Cc1ccc(O)cc1)NC(=O)[C@@H](Cc1c[nH]cn1)NC(=O)[C@H]1CCCN1C(=O)[C@@H](Cc1c[nH]c2ccccc12)NC(=O)c1ccc2c(c1)C(=O)OC21c2ccc(O)cc2Oc2cc(O)ccc21)C(=O)NCc1ccc(CC(=O)NCC(=O)N[C@@H](C(=O)N2CCC[C@@H]2C(=O)N[C@H](CCCNC(=N)N)C(=O)N[C@@H](C)C(=O)NCc2ccc(CC(=O)N3CCC[C@@H]3C(=O)N[C@H](CO)C(=O)N[C@H](CCC(=O)O)C(=O)N[C@H](CCCNC(=N)N)C(=O)NCC(=O)NCc3ccc(CC(=O)N4CCC[C@@H]4C(=O)N[C@H](CCCCN)C(=O)N[C@H](Cc4ccc(O)cc4)C(=O)N[C@H](CCCNC(=N)N)C(=O)N[C@@H](Cc4ccccc4)C(=O)NCc4ccc(CC(=O)N[C@H](CO)C(=O)N[C@H](CO)C(=O)NCC(=O)N[C@H](CC(N)=O)C(=O)N[C@@H](Cc5ccccc5)C(=O)NCc5ccc(CC(=O)NCC(=O)N[C@H](Cc6c[nH]c7ccccc67)C(=O)N[C@H](Cc6c[nH]cn6)C(=O)N[C@H](CCCNC(=N)N)C(=O)N[C@@H](C)C(=O)NCc6ccc(CC(N)=O)cc6)cc5)cc4)cc3)cc2)C(C)C)cc1 [KRAS-1-1] (5FAM-[dW][dP][dH][dY]V[X1]G[dV][dP][dR]A[X1][dP][dS][dE][dR]G[X1][dP][dK][dY][dR]F[X1][dS][dS]G[dN]F[X1]G[dW][dH][dR]A-{NHCH2C6H4(4-CH2CONH2)}) | 24 nM | 24 nM | −0.7155 | 4849 | 6589 | 14500 | 5282 | 11981 | 14675 | blank corrected HTRF (cRaf/K-Ras (G12V) PPI; conc. 1.23E−07): 12756; blank corrected HTRF (cRaf/K-Ras (G12V) PPI; conc. 5.08E−10): 13672
